These results are taken from patent US8962681B2, “Use of aminoacetonitrile derivatives against endoparasites” (Zoetis LLC, priority 2011, dated 2015).

This assay relates to Dirofilaria immitis microfilariae. Put plainly: in vitro microwell motility assay against heartworm microfilariae. Format: cell-based. Conditions: microfilaria from canine blood, 384 well plate, 72 hours incubation at 37° C. and 5% CO2, LemnaTec Scanalyzer.
As to `CC(C#N)(COc1cc(C#N)ccc1C(F)(F)F)NC(=O)c1ccc(S(F)(F)(F)(F)F)cc1` (centres unmarked) [test compound 3, N-{1-cyano-2-[5-cyano-2-(trifluoromethyl)phenoxy]-1-methylethyl}-4-(pentafluorothio)benzamide], the “ED50 (dose at which the overall microfilaria motility was reduced by 50% compared to that of an untreated control)” value came out at 10 µM.

In the case of `CC(C#N)(COc1cc(C#N)ccc1Cl)NC(=O)c1ccc(S(F)(F)(F)(F)F)cc1` (centres unmarked) [test compound 4, N-[2-(2-chloro-5-cyanophenoxy)-1-cyano-1-methylethyl]-4-(pentafluorothio)benzamide], the “ED50 (dose at which the overall microfilaria motility was reduced by 50% compared to that of an untreated control)” value came out at 10 µM.

With `CC(C#N)(COc1cc(C#N)cc(C(F)(F)F)c1)NC(=O)c1ccc(S(F)(F)(F)(F)F)cc1` (centres unmarked) [test compound 5, N-{1-cyano-2-[3-cyano-5-(trifluoromethyl)phenoxy]-1-methylethyl}-4-(pentafluorothio)benzamide], the “ED50 (dose at which the overall microfilaria motility was reduced by 50% compared to that of an untreated control)” value was 3.3 µM.

For the compound `CC(C#N)(COc1cccc(Cl)c1C#N)NC(=O)c1ccc(S(F)(F)(F)(F)F)cc1` (centres unmarked) [test compound 17, N-[2-(3-chloro-2-cyanophenoxy)-1-cyano-1-methylethyl]-4-(pentafluorothio)-benzamide], the “ED50 (dose at which the overall microfilaria motility was reduced by 50% compared to that of an untreated control)” value stood at 10 µM.

Take `CC(C#N)(COc1ccc(Cl)cc1F)NC(=O)c1ccc(S(F)(F)(F)(F)F)cc1` (centres unmarked) [test compound 20, N-[2-(4-chloro-2-fluorophenoxy)-1-cyano-1-methylethyl]-4-(pentafluorothio)-benzamide]: the “ED50 (dose at which the overall microfilaria motility was reduced by 50% compared to that of an untreated control)” value came to 10 µM.

As for `CC(C#N)(COc1c(F)cc(C#N)cc1C(F)(F)F)NC(=O)c1ccc(S(F)(F)(F)(F)F)cc1` (centres unmarked) [test compound 26, N-{1-cyano-2-[4-cyano-2-fluoro-6-(trifluoromethyl)phenoxy]-1-methylethyl}-4-(pentafluorothio)benzamide], the “ED50 (dose at which the overall microfilaria motility was reduced by 50% compared to that of an untreated control)” value came out at 10 µM.

In the case of `CC(C#N)(COc1cc(C#N)ccc1Br)NC(=O)c1ccc(S(F)(F)(F)(F)F)cc1` (centres unmarked) [test compound 27, N-[2-(2-bromo-5-cyanophenoxy)-1-cyano-1-methylethyl]-4-(pentafluorothio)-benzamide], the “ED50 (dose at which the overall microfilaria motility was reduced by 50% compared to that of an untreated control)” value turned out to be 3.3 µM.

Regarding `CC(C#N)(COc1ccc(F)cc1Br)NC(=O)c1ccc(S(F)(F)(F)(F)F)cc1` (centres unmarked) [test compound 31, N-[2-(2-bromo-4-fluorophenoxy)-1-cyano-1-methylethyl]-4-(pentafluorothio)-benzamide], the “ED50 (dose at which the overall microfilaria motility was reduced by 50% compared to that of an untreated control)” value came out at 10 µM.

Regarding `CC(C#N)(COc1ccc(Br)cc1F)NC(=O)c1ccc(S(F)(F)(F)(F)F)cc1` (centres unmarked) [test compound 32, N-[2-(4-bromo-2-fluorophenoxy)-1-cyano-1-methylethyl]-4-(pentafluorothio)-benzamide], the “ED50 (dose at which the overall microfilaria motility was reduced by 50% compared to that of an untreated control)” value was 33 µM.

In the case of `CC(C#N)(COc1cc(Br)cc(C#N)c1)NC(=O)c1ccc(S(F)(F)(F)(F)F)cc1` (centres unmarked) [test compound 33, N-[2-(3-bromo-5-cyanophenoxy)-1-cyano-1-methylethyl]-4-(pentafluorothio)-benzamide], the “ED50 (dose at which the overall microfilaria motility was reduced by 50% compared to that of an untreated control)” value was 33 µM.

In the case of `CC(C#N)(COc1cc(Br)ccc1C#N)NC(=O)c1ccc(S(F)(F)(F)(F)F)cc1` (centres unmarked) [test compound 36, N-[2-(5-bromo-2-cyanophenoxy)-1-cyano-1-methylethyl]-4-(pentafluorothio)-benzamide], the “ED50 (dose at which the overall microfilaria motility was reduced by 50% compared to that of an untreated control)” value came out at 10 µM.

Take `CC(C#N)(COc1ccc(Cl)c(Cl)c1)NC(=O)c1ccc(S(F)(F)(F)(F)F)cc1` (centres unmarked) [test compound 38, N-[1-cyano-2-(3,4-dichlorophenoxy)-1-methylethyl]-4-(pentafluorothio)benzamide]: the “ED50 (dose at which the overall microfilaria motility was reduced by 50% compared to that of an untreated control)” value is 33 µM.

As for `CC(C#N)(COc1cc(Cl)ccc1Cl)NC(=O)c1ccc(S(F)(F)(F)(F)F)cc1` (centres unmarked) [test compound 39, N-[1-cyano-2-(2,5-dichlorophenoxy)-1-methylethyl]-4-(pentafluorothio)benzamide], the “ED50 (dose at which the overall microfilaria motility was reduced by 50% compared to that of an untreated control)” value was 10 µM.

Consider `Cc1cc(C#N)ccc1OCC(C)(C#N)NC(=O)c1ccc(S(F)(F)(F)(F)F)cc1` (centres unmarked) [test compound 40, N-[1-cyano-2-(4-cyano-2-methylphenoxy)-1-methylethyl]-4-(pentafluorothio)-benzamide], for which the “ED50 (dose at which the overall microfilaria motility was reduced by 50% compared to that of an untreated control)” value was 10 µM.

Consider `COc1ccc(OCC(C)(C#N)NC(=O)c2ccc(S(F)(F)(F)(F)F)cc2)cc1C#N` (centres unmarked) [test compound 41, N-[1-cyano-2-(3-cyano-4-methoxyphenoxy)-1-methylethyl]-4-(pentafluorothio)-benzamide], for which the “ED50 (dose at which the overall microfilaria motility was reduced by 50% compared to that of an untreated control)” value was determined as 33 µM.

With `CC(C#N)(COc1cccc(Cl)c1C(F)(F)F)NC(=O)c1ccc(S(F)(F)(F)(F)F)cc1` (centres unmarked) [test compound 50, N-{2-[3-chloro-2-(trifluoromethyl)phenoxy]-1-cyano-1-methylethyl}-4-(pentafluorothio)benzamide], the “ED50 (dose at which the overall microfilaria motility was reduced by 50% compared to that of an untreated control)” value came to 33 µM.

For `CSc1ccc(COCC(C)(C#N)NC(=O)c2ccc(S(F)(F)(F)(F)F)cc2)cc1` (centres unmarked) [test compound 53, N-(1-cyano-1-methyl-2-{[4-(methylthio)benzyl]oxy}ethyl)-4-(pentafluorothio)benzamide], the “ED50 (dose at which the overall microfilaria motility was reduced by 50% compared to that of an untreated control)” value is 10 µM.

Consider `CC(C#N)(COc1c(F)cc(F)cc1C#N)NC(=O)c1ccc(S(F)(F)(F)(F)F)cc1` (centres unmarked) [test compound 54, N-[1-cyano-2-(2-cyano-4,6-difluorophenoxy)-1-methylethyl]-4-(pentafluorothio)-benzamide], for which the “ED50 (dose at which the overall microfilaria motility was reduced by 50% compared to that of an untreated control)” value turned out to be 33 µM.

As for `CC(C#N)(COc1cc(C#N)ccc1OC(F)(F)F)NC(=O)c1ccc(S(F)(F)(F)(F)F)cc1` (centres unmarked) [test compound 55, N-{1-cyano-2-[5-cyano-2-(trifluoromethoxy)phenoxy]-1-methylethyl}-4-(pentafluorothio)benzamide], the “ED50 (dose at which the overall microfilaria motility was reduced by 50% compared to that of an untreated control)” value was 10 µM.

Turning to `CC(C#N)(COc1ccc(C#N)cc1OC(F)(F)F)NC(=O)c1ccc(S(F)(F)(F)(F)F)cc1` (centres unmarked) [test compound 56, N-{1-cyano-2-[4-cyano-2-(trifluoromethoxy)phenoxy]-1-methylethyl}-4-(pentafluorothio)benzamide], the “ED50 (dose at which the overall microfilaria motility was reduced by 50% compared to that of an untreated control)” value stood at 3.3 µM.

`CC(C#N)(COc1cc(C#N)ccc1Cl)NC(=O)c1ccc(S(F)(F)(F)(F)F)cc1` (centres unmarked) [test compound 57, N-[2-(2-chloro-5-cyanophenoxy)-1-cyano-1-methylethyl]-4-(pentafluorothio)-benzamide]: the “ED50 (dose at which the overall microfilaria motility was reduced by 50% compared to that of an untreated control)” value is 10 µM.

Regarding `CC(C#N)(COc1cc(F)c(F)cc1Br)NC(=O)c1ccc(S(F)(F)(F)(F)F)cc1` (centres unmarked) [test compound 58, N-[2-(2-bromo-4,5-difluorophenoxy)-1-cyano-1-methylethyl]-4-(pentafluorothio)benzamide], the “ED50 (dose at which the overall microfilaria motility was reduced by 50% compared to that of an untreated control)” value is 33 µM.

`CC(C#N)(COc1cc(C#N)ccc1Oc1ccc(F)cc1)NC(=O)c1ccc(S(F)(F)(F)(F)F)cc1` (centres unmarked) [test compound 61, N-{1-cyano-2-[5-cyano-2-(4-fluorophenoxy)phenoxy]-1-methylethyl}-4-(pentafluorothio)benzamide]: the “ED50 (dose at which the overall microfilaria motility was reduced by 50% compared to that of an untreated control)” value stood at 1 µM.

For the compound `CC(C#N)(COc1cc(C#N)ccc1Oc1ccc(Cl)cc1F)NC(=O)c1ccc(S(F)(F)(F)(F)F)cc1` (centres unmarked) [test compound 62, N-{2-[2-(4-chloro-2-fluorophenoxy)-5-cyanophenoxy]-1-cyano-1-methylethyl}-4-(pentafluorothio)benzamide], the “ED50 (dose at which the overall microfilaria motility was reduced by 50% compared to that of an untreated control)” value turned out to be 1 µM.

As to `CC(C#N)(COc1cc(C#N)ccc1Oc1ccc(F)cc1Cl)NC(=O)c1ccc(S(F)(F)(F)(F)F)cc1` (centres unmarked) [test compound 63, N-{2-[2-(2-chloro-4-fluorophenoxy)-5-cyanophenoxy]-1-cyano-1-methylethyl}-4-(pentafluorothio)benzamide], the “ED50 (dose at which the overall microfilaria motility was reduced by 50% compared to that of an untreated control)” value is 3.3 µM.

In the case of `CC(C#N)(COc1cc(C#N)ccc1Oc1ccc(Cl)cc1)NC(=O)c1ccc(S(F)(F)(F)(F)F)cc1` (centres unmarked) [test compound 64, N-{2-[2-(4-chlorophenoxy)-5-cyanophenoxy]-1-cyano-1-methylethyl}-4-(pentafluorothio)benzamide], the “ED50 (dose at which the overall microfilaria motility was reduced by 50% compared to that of an untreated control)” value stood at 1 µM.

As for `CC(C#N)(COc1cc(C#N)ccc1Oc1ccc(Cl)cc1Cl)NC(=O)c1ccc(S(F)(F)(F)(F)F)cc1` (centres unmarked) [test compound 65, N-{1-cyano-2-[5-cyano-2-(2,4-dichlorophenoxy)phenoxy]-1-methylethyl}-4-(pentafluorothio)benzamide], the “ED50 (dose at which the overall microfilaria motility was reduced by 50% compared to that of an untreated control)” value turned out to be 3.3 µM.

On to `COc1ccc(Oc2ccc(C#N)cc2OCC(C)(C#N)NC(=O)c2ccc(S(F)(F)(F)(F)F)cc2)cc1` (centres unmarked) [test compound 66, N-{1-cyano-2-[5-cyano-2-(4-methoxyphenoxy)phenoxy]-1-methylethyl}-4-(pentafluorothio)benzamide], for which the “ED50 (dose at which the overall microfilaria motility was reduced by 50% compared to that of an untreated control)” value stood at 3.3 µM.

As for `CC(C#N)(COc1cc(C#N)ccc1Oc1ccc(C(F)(F)F)cc1)NC(=O)c1ccc(S(F)(F)(F)(F)F)cc1` (centres unmarked) [test compound 67, N-(1-cyano-2-{5-cyano-2-[4-(trifluoromethyl)phenoxy]phenoxy}-1-methylethyl)-4-(pentafluorothio)benzamide], the “ED50 (dose at which the overall microfilaria motility was reduced by 50% compared to that of an untreated control)” value turned out to be 1 µM.
